For one data set, the system named is PBX-1 3′UTR. The data set is described as follows: Dual-luciferase reporter assay, PBX-1 3′UTR. In kind it is cell-based. As to conditions: following miR-198 transfection/overexpression; firefly/Renilla ratio, 24 h. The protocol:
A luciferase construct containing the first 491 bases of the PBX-1 3′UTR was purchased from Switchgear Genomics. Two mutant PBX-1 3′UTR reporters were subsequently generated using the Stratagene Quickchange Site-directed Mutagenesis kit, with the WT miR-198 binding site seed region either altered from TCTGGA to AAGCTT (a HindIII restriction site) or deleted entirely (FIG. 10).
Dual luciferase assays were performed according to the manufacturer's instruction. Luciferase expression analysis was performed at 24 h using the Dual-luciferase kit (Promega) and Sirius Luminometer (Berthold Detection System). Results are presented as the ratio of firefly to Renilla luciferase activities, normalized to controls.
The PBX-1 3′UTR region was cloned into the pSGG-3UTR vector (based on pGL4.11 vector with a MCS added after luciferase) after the reporter gene, firefly luciferase, whose expression is regulated by the SV40 promoter. A separate reporter for Renilla luciferase under the control of the CMV promoter was utilized to normalize for transfection efficiency. The identity of the 3′UTR sequence including the predicted miR-198 binding site was confirmed using the following primers: Fwd: […] [SEQ ID NO. 111], Rev: […]. [SEQ ID NO. 112]
A general note: In a reporter assay the amount or activity of a reporter protein is the signal.

A further data set has as its system HPDE cells. Description: Migration assay. It is filed as cell-based. As to conditions: 72 h. How it is done: (§1) Cell migration was determined with a modified Boyden chamber assay as described previously (Li et al., 2008). For invasion assays, Matrigel basement membrane matrix (BD Biosciences) was used by adding 100 ul of 1 mg/ml Matrigel to the migration chamber inserts prior to plating of the cells (Li et al., 2008, Bharadwaj).

Data set [1] relates to AsPC1 cells. The data set is described as follows: Apoptosis assay (TUNEL) after TNF-α. It is filed as cell-based, human. As to conditions: AsPC1-miR-198 cells, TUNEL after TNF-α treatment. How it is done: (§2) Apoptosis induction was determined using western blotting for Caspase 3 cleavage and confirmed by labeling DNA breaks using a terminal deoxynucleotidyltransferase dUTP nick end labeling (TUNEL) assay with the APO-DIRECT Kit (BD Biosciences) following 96 h of treatment (24 h serum starvation followed by 72 h of treatment with 20 ng/ml of TNF-α). Briefly, cells were plated in either 10% FBS media or serum-starved for 96 h, at which time 1×10^6 cells were harvested using trypsin-EDTA. After centrifugation, the pellets were washed twice with PBS, then resuspended in 1% paraformaldehyde in PBS and incubated on ice for 45 minutes. After several washes, the cell pellet again was resuspended in PBS/ethanol, incubated on ice for 30 minutes, and stored at −20° C. Cell samples were then pelleted, washed, and resuspended in 50 μL of DNA labeling solution containing a reaction buffer, terminal deoxynucleotidyl transferase enzyme, FITC-labeled deoxyuridine triphosphate nucleotides, and distilled water. After a 60-minute incubation at 37° C., cells were again washed, pelleted, and resuspended in 500 μl of propidium iodine/RNase staining buffer. Samples were then analyzed by flow cytometry (fluorescence-activated cell sorting) using a FACSCalibur (Becton Dickinson, Franklin Lakes, NJ). Data was further analyzed using the software FLOWJOW ver. 6.1.1 (Tree Star Inc.).

The next data set deals with MIA-V cells. Description: Apoptosis assay (TUNEL) after TNF-α. As to conditions: TUNEL after TNF-α treatment. It is filed as cell-based, human. How it is done:
as §2

The test system of data set [2] is MIA-MSLN cells. The data set is described as follows: Anchorage independent growth assay in soft agar. As to conditions: MIA-MSLN-miR-198 vs MIA-MSLN, 15 days, ImageJ. In kind it is cell-based, human. The protocol: A soft agar assay for colony formation was performed by coating 35 mm dishes with a combination of 0.5% base agar and 0.7% top agar. Base agar preparation: 1% LMP Agarose (DNA grade) (Baylor College of Medicine) was melted in 1× incomplete DMEM, microwaved, and cooled to 40° C. in a water bath. Equal volumes of 20% FBS DMEM pre-warmed to 40° C. in water bath were mixed to give 0.5% Agar+10% DMEM, of which 1.5 ml/35 m Petri dish was added and allowed to set at room temperature.
Top agar preparation: 0.7% LMP Agarose (DNA grade) in 1×DMEM was prepared in the same manner as above. Cells were trypsinized and diluted to 0.1×10^6 cells/ml, in the 20% FBS DMEM; 5,000 cells/dish were plated in duplicate. The plates were then incubated at 37° C. in a humidified incubator for 15 days. Following incubation, the plates were stained with 0.5 ml of 1% MTT for 2 h, and colonies were photographed using a dissecting microscope. Images were analyzed using IMAGEJ software.

For data set [3], the system named is AsPC1 cells. The data set is described as follows: Migration, modified Boyden chamber assay. It is filed as cell-based, human. As to conditions: stable miR-198 overexpression in AsPC1 cells, FIG. 14D. How it is done:
as §1

Data set [4] relates to MIA-MSLN cells. The data set is described as follows: Migration, modified Boyden chamber assay. It is filed as cell-based, human. The protocol:
as §1

For data set [5], the system named is MIA-MSLN cells. Description: Orthotopic pancreatic cancer mouse model. It is filed as in vivo, nude mice. The protocol: All animal procedures were conducted under the guidelines approved by the Institutional Animal Care and Use Committee (IACUC). Cells (3×10^6) were inoculated into the right flank (s.c. model) or into the pancreas (orthotopic model) of 5 to 6-week-old male nude mice (NCI-Charles River) as previously described (Li et al., 2007). Tumor size was measured using a digital caliper and tumor volume was determined with the following formula: tumor volume (mm^3)=[length (mm)]×[width (mm)]2×0.52. For the orthotopic model, after 4 weeks all surviving mice were euthanized and evaluated macroscopically for the presence of orthotopic tumor and metastases in the abdominal cavity. Tumor spread was further visualized using a fluorescent filter to view GFP expression. The tumor nodules were explanted, counted, and weighed. Tumor tissues were stored in RNAse Later solution (Ambion) in −80° for subsequent RNA/miRNA isolation and analysis.

For a further data set, the system named is COS-7 cells. Description: Co-transfection with MSLN ORF construct, western blot. It is filed as cell-based. As to conditions: COS-7 cells co-transfected with WT MSLN plasmid and miR-198 precursors. The source says: A MSLN ORF clone was purchased from Origene (RC202532). Site-directed mutagenesis was used to generate constructs containing silent mutations in each of the three predicted miR-198 binding sites within the CDS of the MSLN gene (FIG. 13). MiR-198 precursors or a scrambled miRNA control were co-transfected into COS-7 cells along with either the WT MSLN ORF construct or each of the single, double, or triple mutants. Cell lysates were collected for western blot analysis. RNA and miRNA were collected for real-time RT-PCR analysis.
On the technique in general: Immunoblotting shows a protein as a band on a membrane.

As to “miR-198: microRNA-198, SEQ ID NO: 1 gguccagaggggagauagg; used as transfected precursors (Ambion) or Lenti-miR stable overexpression (GGUCCAGAGGGGAGAUAGG; listed as RNA, chemistry not given here; listed as Homo sapiens)”, the “reduction in PBX-1 3′UTR luciferase expression” value in the data set on PBX-1 3′UTR is listed as 65%. The migration result in the data set on HPDE cells was “did not seem to have an effect”. In addition, the “increase in number of cells undergoing apoptosis over controls” value in the data set with AsPC1 cells [1] was > 90%. Besides, the apoptotic cells in the data set on MIA-V cells is on record as ~75%. Besides, the “reduction in mean threshold intensity of soft agar colonies” value in the data set on MIA-MSLN cells [2] is given as ~20 fold. Moreover, the migration reduced in the data set with AsPC1 cells [3] was 33%; in the data set with AsPC1 cells [3] (listed as MiR-198) it was > 50%; in the data set on MIA-MSLN cells [4] (36 h after transient miR-198 transfection), 44%; in the data set with MIA-MSLN cells [4] (stable miR-198 overexpression, after 48 h) it was ~40%. The “average primary tumor weight” value with MIA-MSLN cells [5] (orthotopic MIA-MSLN-miR-198 cells, after 4 weeks) came to 0.06 g. Moreover, in the data set on MIA-MSLN cells [5] (orthotopic MIA-MSLN-miR-198 injected mice, 8 mice), the metastases entry is recorded as “Four of the eight mice had no metastases”. Moreover, the “jaundice, weight loss, and abdominal ascitic fluid” value in the data set with MIA-MSLN cells [5] (orthotopic, mice injected with high miR-198 cells) is listed as “none of the mice injected with high miR-198 cells had these symptoms”. The “expression of WT MSLN protein” value in the data set on COS-7 cells is on record as “abolished expression of the WT MSLN protein”.
